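Following 48 hours of exposure in 96-well plates, responses at five concentrations were used to interpolate endpoints linearly. GI50 marks 50% less growth. TGI: total growth inhibition.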
What follows are molecules tested on A498 renal (assay: growth of human tumour cells (NCI), 48 h).

SMILES	TGI [µM]	GI50 [nM]
O=C(CC1Sc2ccccc2NC1=O)Nc1ccccc1[N+](=O)[O-] (centres undefined)	> 100	–
CCOC(=O)c1csc(NC(=O)CN2CCCC2)n1	> 100	–
CC1NC(=O)C(C)C(c2ccccc2)N(N=O)C1c1ccccc1 (centres undefined)	> 100	–
O=C1OC(c2ccccc2)=N/C1=C\c1ccc([N+](=O)[O-])cc1	> 100	–
CO[C@](C(=O)OC[C@H]1[C@@H](COC(C)=O)[C@@H]2O[C@H]1c1cc3c(cc12)OCO3)(c1ccccc1)C(F)(F)F	> 100	–
O=C(O)Cc1ccc([N+](=O)[O-])cc1[N+](=O)[O-]	> 100	–
CON(C)C(=O)C(Cc1ccccc1)NC(=O)OCc1ccccc1 (centres undefined)	> 100	–
Cc1ccc(C(=O)OC(C(=O)O)C(OC(=O)c2ccc(C)cc2)C(=O)O)cc1 (centres undefined) (tested in a mixture with another compound)	24.5	–
CCCCCCOc1ccc(/C=N/Nc2cc(C)nc3ccc(Cl)cc23)cc1	3.4	1770

What follows are molecules tested on OVCAR-8 ovarian (assay: growth of human tumour cells (NCI), 48 h).

SMILES	TGI [µM]	GI50 [nM]
O=C(CC1Sc2ccccc2NC1=O)Nc1ccccc1[N+](=O)[O-] (centres undefined)	> 100	–
CCOC(=O)c1csc(NC(=O)CN2CCCC2)n1	> 100	–
CCn1cnc2c(=S)nc(N)[nH]c21	> 100	–
CC1NC(=O)C(C)C(c2ccccc2)N(N=O)C1c1ccccc1 (centres undefined)	> 100	–
O=C1OC(c2ccccc2)=N/C1=C\c1ccc([N+](=O)[O-])cc1	> 100	–
O=C(O)Cc1ccc([N+](=O)[O-])cc1[N+](=O)[O-]	> 100	–
CON(C)C(=O)C(Cc1ccccc1)NC(=O)OCc1ccccc1 (centres undefined)	> 100	–
COc1cc(/C=C2\CN(S(=O)(=O)c3ccc(C)cc3)C/C(=C\c3cc(CN4CCCC4)c(O)c(OC)c3)C2=O)cc(CN2CCCC2)c1O	2.92	710
Cc1ccc(C(=O)OC(C(=O)O)C(OC(=O)c2ccc(C)cc2)C(=O)O)cc1 (centres undefined) (tested in a mixture with another compound)	31.6	–
CCCCCCOc1ccc(/C=N/Nc2cc(C)nc3ccc(Cl)cc23)cc1	4.21	1910

The molecules below were run on NCI-H23 lung (assay: growth of human tumour cells (NCI), 48 h).

SMILES	TGI [µM]	GI50 [nM]
O=C(CC1Sc2ccccc2NC1=O)Nc1ccccc1[N+](=O)[O-] (centres undefined)	> 100	–
CCOC(=O)c1csc(NC(=O)CN2CCCC2)n1	> 100	–
CCn1cnc2c(=S)nc(N)[nH]c21	> 100	–
CC1NC(=O)C(C)C(c2ccccc2)N(N=O)C1c1ccccc1 (centres undefined)	> 100	–
O=C1OC(c2ccccc2)=N/C1=C\c1ccc([N+](=O)[O-])cc1	> 100	–
CO[C@](C(=O)OC[C@H]1[C@@H](COC(C)=O)[C@@H]2O[C@H]1c1cc3c(cc12)OCO3)(c1ccccc1)C(F)(F)F	> 100	–
O=C(O)Cc1ccc([N+](=O)[O-])cc1[N+](=O)[O-]	> 100	–
CON(C)C(=O)C(Cc1ccccc1)NC(=O)OCc1ccccc1 (centres undefined)	> 100	–
Cc1ccc(C(=O)OC(C(=O)O)C(OC(=O)c2ccc(C)cc2)C(=O)O)cc1 (centres undefined) (tested in a mixture with another compound)	12.8	–
CCCCCCOc1ccc(/C=N/Nc2cc(C)nc3ccc(Cl)cc23)cc1	3.54	1880

Each molecule was assayed on SK-MEL-2 melanoma (assay: growth of human tumour cells (NCI), 48 h).

SMILES	TGI [µM]	GI50 [nM]
O=C(CC1Sc2ccccc2NC1=O)Nc1ccccc1[N+](=O)[O-] (centres undefined)	> 100	–
CCOC(=O)c1csc(NC(=O)CN2CCCC2)n1	> 100	–
CC1NC(=O)C(C)C(c2ccccc2)N(N=O)C1c1ccccc1 (centres undefined)	> 100	–
O=C1OC(c2ccccc2)=N/C1=C\c1ccc([N+](=O)[O-])cc1	86	–
CO[C@](C(=O)OC[C@H]1[C@@H](COC(C)=O)[C@@H]2O[C@H]1c1cc3c(cc12)OCO3)(c1ccccc1)C(F)(F)F	91.3	–
O=C(O)Cc1ccc([N+](=O)[O-])cc1[N+](=O)[O-]	> 100	–
CON(C)C(=O)C(Cc1ccccc1)NC(=O)OCc1ccccc1 (centres undefined)	> 100	–
COc1cc(/C=C2\CN(S(=O)(=O)c3ccc(C)cc3)C/C(=C\c3cc(CN4CCCC4)c(O)c(OC)c3)C2=O)cc(CN2CCCC2)c1O	4.05	1870
Cc1ccc(C(=O)OC(C(=O)O)C(OC(=O)c2ccc(C)cc2)C(=O)O)cc1 (centres undefined) (tested in a mixture with another compound)	23.5	–
CCCCCCOc1ccc(/C=N/Nc2cc(C)nc3ccc(Cl)cc23)cc1	3.24	1720

Each molecule was assayed on HCT-116 colon (assay: growth of human tumour cells (NCI), 48 h).

SMILES	TGI [µM]	GI50 [nM]
O=C(CC1Sc2ccccc2NC1=O)Nc1ccccc1[N+](=O)[O-] (centres undefined)	> 100	–
CCn1cnc2c(=S)nc(N)[nH]c21	> 100	–
CC1NC(=O)C(C)C(c2ccccc2)N(N=O)C1c1ccccc1 (centres undefined)	> 100	–
O=C1OC(c2ccccc2)=N/C1=C\c1ccc([N+](=O)[O-])cc1	> 100	–
CO[C@](C(=O)OC[C@H]1[C@@H](COC(C)=O)[C@@H]2O[C@H]1c1cc3c(cc12)OCO3)(c1ccccc1)C(F)(F)F	> 100	–
O=C(O)Cc1ccc([N+](=O)[O-])cc1[N+](=O)[O-]	> 100	–
CON(C)C(=O)C(Cc1ccccc1)NC(=O)OCc1ccccc1 (centres undefined)	> 100	–
COc1cc(/C=C2\CN(S(=O)(=O)c3ccc(C)cc3)C/C(=C\c3cc(CN4CCCC4)c(O)c(OC)c3)C2=O)cc(CN2CCCC2)c1O	2.21	848
Cc1ccc(C(=O)OC(C(=O)O)C(OC(=O)c2ccc(C)cc2)C(=O)O)cc1 (centres undefined) (tested in a mixture with another compound)	13.8	–

The molecules below were run on U251 CNS (assay: growth of human tumour cells (NCI), 48 h).

SMILES	TGI [µM]	GI50 [nM]
O=C(CC1Sc2ccccc2NC1=O)Nc1ccccc1[N+](=O)[O-] (centres undefined)	> 100	–
CCOC(=O)c1csc(NC(=O)CN2CCCC2)n1	> 100	–
CCn1cnc2c(=S)nc(N)[nH]c21	> 100	–
CC1NC(=O)C(C)C(c2ccccc2)N(N=O)C1c1ccccc1 (centres undefined)	> 100	–
O=C1OC(c2ccccc2)=N/C1=C\c1ccc([N+](=O)[O-])cc1	> 100	–
CO[C@](C(=O)OC[C@H]1[C@@H](COC(C)=O)[C@@H]2O[C@H]1c1cc3c(cc12)OCO3)(c1ccccc1)C(F)(F)F	> 100	–
O=C(O)Cc1ccc([N+](=O)[O-])cc1[N+](=O)[O-]	> 100	–
CON(C)C(=O)C(Cc1ccccc1)NC(=O)OCc1ccccc1 (centres undefined)	> 100	–
COc1cc(/C=C2\CN(S(=O)(=O)c3ccc(C)cc3)C/C(=C\c3cc(CN4CCCC4)c(O)c(OC)c3)C2=O)cc(CN2CCCC2)c1O	2.34	820
Cc1ccc(C(=O)OC(C(=O)O)C(OC(=O)c2ccc(C)cc2)C(=O)O)cc1 (centres undefined) (tested in a mixture with another compound)	22.2	–
CCCCCCOc1ccc(/C=N/Nc2cc(C)nc3ccc(Cl)cc23)cc1	3.43	1900

Each molecule was assayed on TK-10 renal (assay: growth of human tumour cells (NCI), 48 h).

SMILES	TGI [µM]	GI50 [nM]
O=C(CC1Sc2ccccc2NC1=O)Nc1ccccc1[N+](=O)[O-] (centres undefined)	> 100	–
CCOC(=O)c1csc(NC(=O)CN2CCCC2)n1	> 100	–
CCn1cnc2c(=S)nc(N)[nH]c21	> 100	–
O=C1OC(c2ccccc2)=N/C1=C\c1ccc([N+](=O)[O-])cc1	> 100	–
CO[C@](C(=O)OC[C@H]1[C@@H](COC(C)=O)[C@@H]2O[C@H]1c1cc3c(cc12)OCO3)(c1ccccc1)C(F)(F)F	> 100	–
O=C(O)Cc1ccc([N+](=O)[O-])cc1[N+](=O)[O-]	> 100	–
CON(C)C(=O)C(Cc1ccccc1)NC(=O)OCc1ccccc1 (centres undefined)	> 100	–
COc1cc(/C=C2\CN(S(=O)(=O)c3ccc(C)cc3)C/C(=C\c3cc(CN4CCCC4)c(O)c(OC)c3)C2=O)cc(CN2CCCC2)c1O	3.49	1860
CCCCCCOc1ccc(/C=N/Nc2cc(C)nc3ccc(Cl)cc23)cc1	3.32	1890

These molecules were tested on SF-539 CNS (assay: growth of human tumour cells (NCI), 48 h).

SMILES	TGI [µM]	GI50 [nM]
O=C(CC1Sc2ccccc2NC1=O)Nc1ccccc1[N+](=O)[O-] (centres undefined)	> 100	–
CCOC(=O)c1csc(NC(=O)CN2CCCC2)n1	> 100	–
CCn1cnc2c(=S)nc(N)[nH]c21	> 100	–
CC1NC(=O)C(C)C(c2ccccc2)N(N=O)C1c1ccccc1 (centres undefined)	> 100	–
O=C1OC(c2ccccc2)=N/C1=C\c1ccc([N+](=O)[O-])cc1	> 100	–
O=C(O)Cc1ccc([N+](=O)[O-])cc1[N+](=O)[O-]	> 100	–
CON(C)C(=O)C(Cc1ccccc1)NC(=O)OCc1ccccc1 (centres undefined)	> 100	–
COc1cc(/C=C2\CN(S(=O)(=O)c3ccc(C)cc3)C/C(=C\c3cc(CN4CCCC4)c(O)c(OC)c3)C2=O)cc(CN2CCCC2)c1O	3.1	1600
Cc1ccc(C(=O)OC(C(=O)O)C(OC(=O)c2ccc(C)cc2)C(=O)O)cc1 (centres undefined) (tested in a mixture with another compound)	25.2	–
CCCCCCOc1ccc(/C=N/Nc2cc(C)nc3ccc(Cl)cc23)cc1	3.26	1840

These molecules were tested on HCC-2998 colon (assay: growth of human tumour cells (NCI), 48 h).

SMILES	TGI [µM]	GI50 [nM]
O=C(CC1Sc2ccccc2NC1=O)Nc1ccccc1[N+](=O)[O-] (centres undefined)	> 100	–
CCOC(=O)c1csc(NC(=O)CN2CCCC2)n1	> 100	–
CCn1cnc2c(=S)nc(N)[nH]c21	> 100	–
CC1NC(=O)C(C)C(c2ccccc2)N(N=O)C1c1ccccc1 (centres undefined)	> 100	–
O=C1OC(c2ccccc2)=N/C1=C\c1ccc([N+](=O)[O-])cc1	> 100	–
CO[C@](C(=O)OC[C@H]1[C@@H](COC(C)=O)[C@@H]2O[C@H]1c1cc3c(cc12)OCO3)(c1ccccc1)C(F)(F)F	71.9	–
CON(C)C(=O)C(Cc1ccccc1)NC(=O)OCc1ccccc1 (centres undefined)	> 100	–
COc1cc(/C=C2\CN(S(=O)(=O)c3ccc(C)cc3)C/C(=C\c3cc(CN4CCCC4)c(O)c(OC)c3)C2=O)cc(CN2CCCC2)c1O	3.08	1640
Cc1ccc(C(=O)OC(C(=O)O)C(OC(=O)c2ccc(C)cc2)C(=O)O)cc1 (centres undefined) (tested in a mixture with another compound)	10.1	–
CCCCCCOc1ccc(/C=N/Nc2cc(C)nc3ccc(Cl)cc23)cc1	3.45	1930

The molecules below were run on CCRF-CEM leukemia (assay: growth of human tumour cells (NCI), 48 h).

SMILES	TGI [µM]	GI50 [nM]
O=C(CC1Sc2ccccc2NC1=O)Nc1ccccc1[N+](=O)[O-] (centres undefined)	> 100	–
CCOC(=O)c1csc(NC(=O)CN2CCCC2)n1	> 100	–
CCn1cnc2c(=S)nc(N)[nH]c21	> 100	–
CC1NC(=O)C(C)C(c2ccccc2)N(N=O)C1c1ccccc1 (centres undefined)	> 100	–
O=C1OC(c2ccccc2)=N/C1=C\c1ccc([N+](=O)[O-])cc1	68.3	–
CO[C@](C(=O)OC[C@H]1[C@@H](COC(C)=O)[C@@H]2O[C@H]1c1cc3c(cc12)OCO3)(c1ccccc1)C(F)(F)F	> 100	–
O=C(O)Cc1ccc([N+](=O)[O-])cc1[N+](=O)[O-]	> 100	–
CON(C)C(=O)C(Cc1ccccc1)NC(=O)OCc1ccccc1 (centres undefined)	> 100	–
COc1cc(/C=C2\CN(S(=O)(=O)c3ccc(C)cc3)C/C(=C\c3cc(CN4CCCC4)c(O)c(OC)c3)C2=O)cc(CN2CCCC2)c1O	3.74	53.5
Cc1ccc(C(=O)OC(C(=O)O)C(OC(=O)c2ccc(C)cc2)C(=O)O)cc1 (centres undefined) (tested in a mixture with another compound)	17	–

Source: PubChem BioAssay (NCI)
